Literature values, collected in patent US9328386B2, “Markers for susceptibility to an inhibitor of an Src-family kinase” (Evotec (München) GmbH, priority 2011, dated 2016).

Assays:
YES = YES (Homo sapiens, UniProt P07947); conditions: unit not given; cited from earlier work
EGFR = EGFR (Homo sapiens, UniProt P00533); conditions: cited from earlier work
LCK = LCK (Homo sapiens, UniProt P06239); conditions: cited from earlier work
CSK = CSK (Homo sapiens, UniProt P41240); conditions: cited from earlier work
FGFR1 = FGFR1 (Homo sapiens, UniProt P11362); conditions: cited from earlier work
VEGFR = conditions: cited from earlier work
SRC = SRC (Homo sapiens, UniProt P12931); conditions: cited from earlier work
SFK = conditions: cited from earlier work
MET = MET (Homo sapiens, UniProt P08581); conditions: cited from earlier work
Chain of MET (P08581 25-1390): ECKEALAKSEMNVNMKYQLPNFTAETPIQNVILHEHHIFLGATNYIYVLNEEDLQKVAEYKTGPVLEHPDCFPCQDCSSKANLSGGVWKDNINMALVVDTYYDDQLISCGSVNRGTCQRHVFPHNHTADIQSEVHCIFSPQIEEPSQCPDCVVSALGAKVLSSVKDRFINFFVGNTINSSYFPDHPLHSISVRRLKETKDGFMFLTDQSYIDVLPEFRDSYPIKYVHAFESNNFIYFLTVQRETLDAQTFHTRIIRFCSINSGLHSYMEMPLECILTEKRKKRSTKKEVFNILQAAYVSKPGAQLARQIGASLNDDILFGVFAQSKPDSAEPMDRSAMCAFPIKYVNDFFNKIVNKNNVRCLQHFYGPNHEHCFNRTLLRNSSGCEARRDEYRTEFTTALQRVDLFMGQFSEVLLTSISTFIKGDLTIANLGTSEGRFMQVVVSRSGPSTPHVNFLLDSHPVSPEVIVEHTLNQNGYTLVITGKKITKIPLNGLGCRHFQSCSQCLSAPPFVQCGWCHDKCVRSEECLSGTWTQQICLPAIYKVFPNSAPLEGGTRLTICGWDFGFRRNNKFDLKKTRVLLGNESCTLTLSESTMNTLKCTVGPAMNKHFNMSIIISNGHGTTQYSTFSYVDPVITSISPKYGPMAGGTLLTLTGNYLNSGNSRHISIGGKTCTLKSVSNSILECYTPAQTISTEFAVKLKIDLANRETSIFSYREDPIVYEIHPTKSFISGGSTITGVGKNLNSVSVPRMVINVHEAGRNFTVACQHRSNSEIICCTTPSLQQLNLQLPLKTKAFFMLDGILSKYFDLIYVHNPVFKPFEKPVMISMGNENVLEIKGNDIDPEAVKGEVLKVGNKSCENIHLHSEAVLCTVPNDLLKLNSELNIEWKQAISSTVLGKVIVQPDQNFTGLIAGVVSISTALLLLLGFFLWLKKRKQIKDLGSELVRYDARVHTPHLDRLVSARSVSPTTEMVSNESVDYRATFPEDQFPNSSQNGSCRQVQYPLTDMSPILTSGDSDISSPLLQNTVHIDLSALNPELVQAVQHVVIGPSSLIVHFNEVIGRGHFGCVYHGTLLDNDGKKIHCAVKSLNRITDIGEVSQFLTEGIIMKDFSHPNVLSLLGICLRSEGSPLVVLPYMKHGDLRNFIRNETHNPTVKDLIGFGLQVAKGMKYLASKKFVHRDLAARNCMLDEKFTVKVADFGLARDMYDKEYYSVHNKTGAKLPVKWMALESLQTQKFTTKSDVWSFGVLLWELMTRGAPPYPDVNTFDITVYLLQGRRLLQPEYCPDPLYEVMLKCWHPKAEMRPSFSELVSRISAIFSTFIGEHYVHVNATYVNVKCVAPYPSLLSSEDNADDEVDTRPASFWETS

Chain of CSK (P41240 whole entry, species assumed): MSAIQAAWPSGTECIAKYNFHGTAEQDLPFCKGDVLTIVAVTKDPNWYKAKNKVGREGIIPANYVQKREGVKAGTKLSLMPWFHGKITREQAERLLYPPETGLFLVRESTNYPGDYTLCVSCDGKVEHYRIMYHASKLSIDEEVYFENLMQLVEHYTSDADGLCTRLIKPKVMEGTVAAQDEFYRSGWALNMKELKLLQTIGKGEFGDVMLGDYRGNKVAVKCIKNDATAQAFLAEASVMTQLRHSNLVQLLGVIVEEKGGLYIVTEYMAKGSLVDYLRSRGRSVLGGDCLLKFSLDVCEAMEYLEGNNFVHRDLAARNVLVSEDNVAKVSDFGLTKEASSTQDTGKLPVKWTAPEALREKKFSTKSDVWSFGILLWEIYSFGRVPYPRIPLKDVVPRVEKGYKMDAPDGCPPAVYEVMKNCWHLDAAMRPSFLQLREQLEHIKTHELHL
Chain of YES (P07947 whole entry, species assumed): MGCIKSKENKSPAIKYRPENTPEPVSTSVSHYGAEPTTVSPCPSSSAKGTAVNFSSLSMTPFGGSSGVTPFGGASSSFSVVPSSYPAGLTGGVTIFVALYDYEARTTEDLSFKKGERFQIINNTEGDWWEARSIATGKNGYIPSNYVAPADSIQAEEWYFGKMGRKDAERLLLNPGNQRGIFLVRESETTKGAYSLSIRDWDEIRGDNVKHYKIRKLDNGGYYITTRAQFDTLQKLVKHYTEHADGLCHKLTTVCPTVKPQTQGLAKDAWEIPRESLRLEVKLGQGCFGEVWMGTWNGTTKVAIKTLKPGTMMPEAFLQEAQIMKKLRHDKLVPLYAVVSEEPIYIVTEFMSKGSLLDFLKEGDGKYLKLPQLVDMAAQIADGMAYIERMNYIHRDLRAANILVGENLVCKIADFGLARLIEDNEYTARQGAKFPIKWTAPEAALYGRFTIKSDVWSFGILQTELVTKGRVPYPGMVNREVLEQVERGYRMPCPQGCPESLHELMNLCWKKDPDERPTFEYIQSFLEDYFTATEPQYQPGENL
Chain of FGFR1 (P11362 22-822, species assumed): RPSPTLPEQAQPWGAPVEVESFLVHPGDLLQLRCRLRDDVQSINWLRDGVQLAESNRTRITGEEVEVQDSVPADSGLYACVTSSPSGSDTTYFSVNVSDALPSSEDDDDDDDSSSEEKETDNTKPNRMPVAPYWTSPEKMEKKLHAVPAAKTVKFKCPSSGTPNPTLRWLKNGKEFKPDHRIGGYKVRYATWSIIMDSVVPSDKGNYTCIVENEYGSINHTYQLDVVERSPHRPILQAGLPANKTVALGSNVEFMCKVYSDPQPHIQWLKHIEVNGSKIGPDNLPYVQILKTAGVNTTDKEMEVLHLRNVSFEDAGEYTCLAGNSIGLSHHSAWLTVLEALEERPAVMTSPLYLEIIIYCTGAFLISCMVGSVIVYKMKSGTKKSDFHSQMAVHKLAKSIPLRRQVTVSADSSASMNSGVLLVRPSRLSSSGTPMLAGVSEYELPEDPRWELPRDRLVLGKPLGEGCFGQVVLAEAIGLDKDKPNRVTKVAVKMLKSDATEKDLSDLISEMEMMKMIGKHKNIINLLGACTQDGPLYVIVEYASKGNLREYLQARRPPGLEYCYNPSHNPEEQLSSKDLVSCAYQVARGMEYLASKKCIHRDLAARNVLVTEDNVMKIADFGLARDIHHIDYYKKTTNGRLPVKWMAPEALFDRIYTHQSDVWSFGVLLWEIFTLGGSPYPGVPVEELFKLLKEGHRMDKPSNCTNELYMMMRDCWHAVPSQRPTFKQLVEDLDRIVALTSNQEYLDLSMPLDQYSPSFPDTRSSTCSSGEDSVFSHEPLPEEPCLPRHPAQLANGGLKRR
Chain of LCK (P06239 whole entry, species assumed): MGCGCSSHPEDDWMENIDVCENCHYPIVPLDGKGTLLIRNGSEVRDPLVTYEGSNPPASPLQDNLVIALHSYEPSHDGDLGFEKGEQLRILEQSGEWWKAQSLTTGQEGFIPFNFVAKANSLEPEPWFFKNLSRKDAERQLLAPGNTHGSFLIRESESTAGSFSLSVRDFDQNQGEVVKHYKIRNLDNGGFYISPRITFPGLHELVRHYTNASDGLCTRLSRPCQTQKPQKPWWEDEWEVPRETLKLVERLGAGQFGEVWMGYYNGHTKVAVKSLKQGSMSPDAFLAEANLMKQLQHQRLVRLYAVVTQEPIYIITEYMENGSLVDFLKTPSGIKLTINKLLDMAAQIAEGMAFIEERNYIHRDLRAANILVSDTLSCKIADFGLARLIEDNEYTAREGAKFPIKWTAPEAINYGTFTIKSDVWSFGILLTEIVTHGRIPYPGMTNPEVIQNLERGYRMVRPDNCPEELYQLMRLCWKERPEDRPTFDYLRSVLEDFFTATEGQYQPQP
Chain of SRC (P12931 whole entry, species assumed): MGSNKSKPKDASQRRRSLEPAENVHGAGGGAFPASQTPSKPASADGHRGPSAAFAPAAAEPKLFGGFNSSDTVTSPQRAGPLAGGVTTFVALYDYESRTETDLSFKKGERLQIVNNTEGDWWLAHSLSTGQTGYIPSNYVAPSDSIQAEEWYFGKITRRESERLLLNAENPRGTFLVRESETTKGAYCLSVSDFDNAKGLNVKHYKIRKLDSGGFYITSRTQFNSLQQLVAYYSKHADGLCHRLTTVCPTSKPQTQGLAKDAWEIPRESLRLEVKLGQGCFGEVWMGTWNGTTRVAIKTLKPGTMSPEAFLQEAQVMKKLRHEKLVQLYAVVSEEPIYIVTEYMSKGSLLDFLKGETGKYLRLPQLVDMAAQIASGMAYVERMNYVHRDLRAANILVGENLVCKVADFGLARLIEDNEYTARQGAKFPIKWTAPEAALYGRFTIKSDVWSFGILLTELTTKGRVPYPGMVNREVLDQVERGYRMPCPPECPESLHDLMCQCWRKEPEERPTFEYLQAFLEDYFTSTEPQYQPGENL

| Compound | Affinities (basic outline) (YES) | Affinities (basic outline) (EGFR) [nM] | Affinities (basic outline) (LCK) [nM] | Affinities (basic outline) (CSK) [µM] | Affinities (basic outline) (FGFR1) [µM] | Affinities (basic outline) (VEGFR) [nM] | Affinities (basic outline) (SRC) [nM] | Affinities (basic outline) (SFK) [nM] | Affinities (basic outline) (MET) [nM] |
| --- | --- | --- | --- | --- | --- | --- | --- | --- | --- |
| COc1ccc(Cl)c(Nc2ncnc3cc(OCC4CCN(C)CC4)c(OC)cc23)c1 [M475271, 4-quinazolinamine, N-(2-chloro-5-methoxyphenyl)-6-methoxy-7-[(1-methyl-4-piperidinyl)methoxy]-(9Cl)] | 10 | 600 | 200 | 7.6 | 20 | 500 | 25 |  |  |
| CN(C)S(=O)(=O)c1ccc2c(c1)/C(=C/c1cc3c([nH]1)CCCC3)C(=O)N2 [SU6656, (2-oxo-3-(4,5,6,7-tetrahydro-1H-indol-2-ylmethylene)-2,3-dihydro-1H-indole-5-sulfonic acid dimethylamide)] |  |  |  | 0.007 |  |  |  | 0.02 to 6.88 | 3 |
